# Experimental data reported in patent US20140242707A1, “Compositions and Methods for Diagnosing Hypercoagulability and Hypocoagulability” (Philadelphia Health & Education Corporation d/b/a Drexel …, priority 2011, published 2014).
# How the values were obtained:
# [1] = system: Smoker and normal subject plasma; test: Thrombelastography of smoker and normal subject plasma (COHF assay); assay type: biochemical, human; conditions: for final elastic modulus (G), within group vs Control: smoker and normal plasma, 100 μM CORM-2 or 30 mM PHA
# Procedure: Smoking subjects, free of thrombotic or hemorrhagic disease, between the ages of 19 to 50 years of age were recruited (n=20). All comparative data are presented as mean±SD. The male:female ratio (M:F) was 14:6, and the smoking group's age was 32.8±8.7 years. This cohort smoked 1.0±0.4 packs of cigarettes per day. After written consent was obtained, the smoking subjects verified that they had smoked two cigarettes within 90 minutes prior to presentation as they would ordinarily do during the day. Noninvasive pulse oximetry was performed, with COHb found to be 5.0±2.7% for the smoking cohort. Whole blood was obtained from the smokers via venipuncture of an antecubital or hand vein and was anticoagulated with sodium citrate (9 parts blood to 1 part citrate). The blood was immediately centrifuged at 3000×g for 15 minutes at room temperature, with plasma decanted, aliquoted and stored at −80° C. prior to experimentation. Frozen, citrated plasma collected from 20 nonsmoking, age-matched normal subjects (30.7±8.7 years, M:F of 10:10) was obtained from a commercial source. Smoker and normal subject plasma was thawed and subjected to thrombelastographic analyses as previously described for 15 min at 37° C. (Nielsen et al., 2011, Blood Coagul Fibrinolysis, 22: 657-661). […] This pattern of enhanced clot development without decreased time to onset of coagulation is typical of CO exposure (Nielsen et al., 2009, Blood Coagul Fibrinolysis, 20: 377-380; Nielsen et al., 2010, Blood Coagul Fibrinolysis, 21: 349-353; Nielsen et al., 2011, Blood Coagul Fibrinolysis, 22: 657-661). […] Using a modification of the previously described assay (Nielsen et al., 2011, Blood Coagul Fibrinolysis, 22: 657-661), hypercoagulability was defined as a G value 95% confidence interval value of the normal cohort (2720 dynes/cm^2). For COHF likely to be present, G values had to increase≦the average percent seen in normal subjects (≦78%) in the presence of CORM-2, and G values had to decrease≦the average normal percent (≦74%) in the presence of PHA. Using these definitions, 10 smokers were hypercoagulable; 9 smokers had kinetically detectable COHF; and 5 were both hypercoagulable and COHF positive (25% of the cohort). Of interest, 3 smokers had neither hypercoagulability nor detectable COHF (15% of the cohort), with the remaining 12 smokers either hypercoagulable only or COHF positive only (60% of the population). […]
# [2] = system: Patient plasma; pooled normal plasma; test: Thrombelastography of Heartmate II VAD patient plasma and pooled normal plasma; assay type: biochemical, human; conditions: for change in clot strength (TTG) compared to normal plasma: VAD patient plasma, 100 μM CORM-2 or 30 mM PHA
# Procedure: Shortly after induction of anesthesia and invasive monitoring placement, whole blood was collected from the patient's radial arterial catheter and immediately anticoagulated with sodium citrate (9 parts blood:1 part 0.105M sodium citrate). The blood was immediately centrifuged at 3000×g at room temperature, with plasma aliquoted and stored at −80° C. prior to thrombelastographic analyses subsequently described. Operation proceeded, with VAD replacement followed by discharge from the hospital three weeks later.
# Patient plasma was subjected to thrombelastographic analysis for 30 min at 37° C. as previously described (Nielsen et al., 2009, Blood Coagul Fibrinolysis, 20: 377-380; Nielsen et al., 2011, Blood Coagul Fibrinolysis, 22: 657-661). Also, for qualitative/semi-quantitative comparison, four replicate samples of citrated, pooled normal plasma (George King Bio-Medical, Overland Park, Kans., USA) were subjected to identical thrombelastographic analyses. In brief, the final volume for all subsequently described plasma sample mixtures was 359.6 Sample composition consisted of 326 μl of plasma; 10 μl of tissue factor reagent (0.1% final concentration in dH2O; Diagnostica Stago S.A.S., Asnieres sur Seine, France), 3.6 μl of dH2O or dH2O containing the organic reductant phenylhydroxylamine (PHA, 30 mM final concentration, Sigma-Aldrich, Saint Louis, Mo., USA), or 3.6 μl of CORM-2 (100 μM final concentration; Sigma-Aldrich) and 20 μl of 200 mM CaCl2. The addition of CORM-2 determines if there are heme groups unbound by CO in plasma by increasing coagulation kinetics (Nielsen et al., 2011, Blood Coagul Fibrinolysis, 22: 657-661). PHA at this concentration rapidly converts heme-attached Fe^+2 to Fe^+3, the met-state, displacing CO and decreasing coagulation (Nielsen et al., 2011, Blood Coagul Fibrinolysis, 22: 657-661). […] Thrombelastographic variables previously described (Nielsen et al., 2009, Blood Coagul Fibrinolysis, 20: 377-380; Nielsen et al., 2011, Blood Coagul Fibrinolysis, 22: 657-661) were determined, and the results are depicted in FIG. 7 and FIG. 8.
SMILES,"average percent increase in G ([1]; normal subjects, 100 μM CORM-2) [%]","final elastic modulus (G), within group vs Control [1]",change in clot strength (TTG) compared to normal plasma [2],"change in clot strength (TTG) ([2]; normal pooled plasma, 100 μM CORM-2)","average percent decrease in G ([1]; normal subjects, 30 mM PHA) [%]"
"[C-]#[O+].[C-]#[O+].[C-]#[O+].[C-]#[O+].[C-]#[O+].[C-]#[O+].[Cl][Ru][Cl].[Cl][Ru][Cl] [CORM-2, tricarbonyldichlororuthenium (II) dimer]",78,significantly increased,markedly decreased response,typical increase,–
"ONc1ccccc1 [PHA, phenylhydroxylamine]",–,significantly decreased,greater decrease,–,74
